Measured values from ChEMBL document CHEMBL2074467, “Transport characteristics of differently charged cephalosporin antibiotics in oocytes expressing the cloned intestinal peptide transporter PepT1 and in human intestinal Caco-2 cells” (J Pharmacol Exp Ther, 1996).
Each block holds one compound with its values, some of them ahead of it.

Tests used:
Format in all cases: functional, cell-based
[1] = target: T1, Solute carrier family 15 member 1 (Homo sapiens) (UniProt P46059); assay: TP_TRANSPORTER: inhibition of Cefadroxil uptake (apical pH 6.5, Cefadroxil: 1000 uM, Amoxicillin: 10000 uM) in Caco-2 cells; set-up: scale not given: the % may be the effect or the level left
T1 sequence (whole entry): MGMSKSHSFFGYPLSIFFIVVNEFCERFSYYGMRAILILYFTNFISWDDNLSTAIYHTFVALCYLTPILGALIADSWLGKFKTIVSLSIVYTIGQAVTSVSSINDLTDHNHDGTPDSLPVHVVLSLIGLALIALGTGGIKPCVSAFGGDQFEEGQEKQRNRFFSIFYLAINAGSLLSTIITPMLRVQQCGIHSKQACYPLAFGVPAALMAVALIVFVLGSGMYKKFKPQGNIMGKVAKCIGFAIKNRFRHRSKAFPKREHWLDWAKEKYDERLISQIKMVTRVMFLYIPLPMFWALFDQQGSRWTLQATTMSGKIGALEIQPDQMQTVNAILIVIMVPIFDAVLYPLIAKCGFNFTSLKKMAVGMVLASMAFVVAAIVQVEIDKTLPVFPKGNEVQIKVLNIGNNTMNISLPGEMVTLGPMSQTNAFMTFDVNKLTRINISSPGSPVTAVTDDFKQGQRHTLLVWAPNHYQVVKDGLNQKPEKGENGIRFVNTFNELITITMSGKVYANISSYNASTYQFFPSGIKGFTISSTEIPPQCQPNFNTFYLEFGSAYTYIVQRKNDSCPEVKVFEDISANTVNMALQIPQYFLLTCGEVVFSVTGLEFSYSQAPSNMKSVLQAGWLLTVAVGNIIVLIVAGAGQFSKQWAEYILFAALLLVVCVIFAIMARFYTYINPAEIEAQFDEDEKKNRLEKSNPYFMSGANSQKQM

[2] = target: T1, Solute carrier family 15 member 1 (Homo sapiens); assay: TP_TRANSPORTER: inhibition of Cefadroxil uptake (apical pH 5.5, Cefadroxil: 1000 uM, Amoxicillin: 10000 uM) in Caco-2 cells; set-up: scale not given: the % may be the effect or the level left
[3] = target: T2, Solute carrier family 15 member 1 (Homo sapiens, UniProt P46059); assay: TP_TRANSPORTER: inhibition of Cefixim uptake in Caco-2 cells
T2 sequence (P46059 whole entry): T1 sequence (whole entry)

[4] = target: T1, Solute carrier family 15 member 1 (Homo sapiens); assay: TP_TRANSPORTER: inhibition of Cefadroxil uptake (apical pH 6.5, Cefadroxil: 1000 uM, Loracarbef: 10000 uM) in Caco-2 cells; set-up: scale not given: the % may be the effect or the level left
[5] = target: T1, Solute carrier family 15 member 1 (Homo sapiens); assay: TP_TRANSPORTER: inhibition of Cefadroxil uptake (apical pH 5.5, Cefadroxil: 1000 uM, Loracarbef: 10000 uM) in Caco-2 cells; set-up: scale not given: the % may be the effect or the level left
[6] = target: T2, Solute carrier family 15 member 1; assay: TP_TRANSPORTER: inhibition of Cefadroxil uptake in Caco-2 cells

Activity [1]: 62.9%
Activity [2]: 85.7%
SMILES: CC1(C)S[C@@H]2[C@H](NC(=O)[C@H](N)c3ccc(O)cc3)C(=O)N2[C@H]1C(=O)O

Ki [3]: 1450 µM
SMILES: CC1=C(C(=O)O)N2C(=O)[C@@H](NC(=O)[C@H](N)c3ccc(O)cc3)[C@H]2SC1 [CEFADROXIL]

Activity [4]: 60.3%
Activity [5]: 72.6%
SMILES: N[C@@H](C(=O)N[C@@H]1C(=O)N2C(C(=O)O)=C(Cl)CC[C@H]12)c1ccccc1

Ki [6]: 1310 µM
SMILES: C=CC1=C(C(=O)O)N2C(=O)[C@@H](NC(=O)/C(=N\OCC(=O)O)c3csc(N)n3)[C@H]2SC1 [CEFIXIME]
